≈ marks a conversion by molar mass, not a printed value. Entries after “also recorded” stand apart in the source; their conditions may differ. Like-named read-outs stand apart in the source and are kept apart here. Blank lines part the entries; values can stand above or below the molecule they belong to.
Tests used:
[1] = target: T1, human PGHS-II (COX-II) enzyme (Homo sapiens, UniProt P35354); assay: Cyclooxygenase inhibitory assay (initial rate of O2 uptake), COX-II; type: biochemical
T1 construct: made in house; host or cells: insect cells (lysates)
T1 sequence (P35354 18-604): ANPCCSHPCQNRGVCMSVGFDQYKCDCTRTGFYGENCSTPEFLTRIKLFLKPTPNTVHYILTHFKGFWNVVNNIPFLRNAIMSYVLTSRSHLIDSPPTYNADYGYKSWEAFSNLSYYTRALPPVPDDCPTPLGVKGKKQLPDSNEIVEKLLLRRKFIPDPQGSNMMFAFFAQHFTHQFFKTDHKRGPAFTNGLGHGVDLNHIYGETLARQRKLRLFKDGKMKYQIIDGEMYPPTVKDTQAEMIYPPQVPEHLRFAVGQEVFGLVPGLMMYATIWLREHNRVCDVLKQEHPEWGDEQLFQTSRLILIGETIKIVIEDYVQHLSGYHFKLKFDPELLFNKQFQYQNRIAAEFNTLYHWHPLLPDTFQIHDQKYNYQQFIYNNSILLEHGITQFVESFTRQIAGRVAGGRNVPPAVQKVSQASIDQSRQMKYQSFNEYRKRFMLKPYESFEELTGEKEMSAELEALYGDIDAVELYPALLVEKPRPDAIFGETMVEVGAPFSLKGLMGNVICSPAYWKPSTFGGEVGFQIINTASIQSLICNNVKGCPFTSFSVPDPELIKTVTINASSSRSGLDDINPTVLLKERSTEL
Description: (§1) Prostaglandin H synthase isozymes-I (PGHS-I or COX-I) was prepared from ram seminal vesicles. PGHS-II or COX-II enzyme for the assay was prepared from lysates of cloned insect cell with human PGHS-II enzyme. Each assay mixture contained 600 μL of 0.1 M Tris buffer (pH 7), 1 mM phenol, 17 μg hemoglobin and 10 μL of COX-I or 20-30 μL of COX-II enzymes. Crude extracts or pure compounds were preincubated with 25-100 μg mL^−1 in DMSO for 5-minutes with COX-I or COX-II enzymes in the assay chamber at 37° C. […] Instantaneous inhibition of the enzyme was determined by monitoring the initial rate of O2 uptake using an O2 electrode.

[2] = target: T2, prostaglandin H endoperoxide synthase-I (COX-I) (Ovis aries, UniProt P05979); assay: Cyclooxygenase inhibitory assay (initial rate of O2 uptake), COX-I; type: biochemical, ram; conditions: for inhibition at 100 µg/mL: read-out: COX-I inhibitory activity
T2 construct: was prepared from ram seminal vesicles; from tissue; host or cells: ram seminal vesicles
T2 sequence (P05979 25-600): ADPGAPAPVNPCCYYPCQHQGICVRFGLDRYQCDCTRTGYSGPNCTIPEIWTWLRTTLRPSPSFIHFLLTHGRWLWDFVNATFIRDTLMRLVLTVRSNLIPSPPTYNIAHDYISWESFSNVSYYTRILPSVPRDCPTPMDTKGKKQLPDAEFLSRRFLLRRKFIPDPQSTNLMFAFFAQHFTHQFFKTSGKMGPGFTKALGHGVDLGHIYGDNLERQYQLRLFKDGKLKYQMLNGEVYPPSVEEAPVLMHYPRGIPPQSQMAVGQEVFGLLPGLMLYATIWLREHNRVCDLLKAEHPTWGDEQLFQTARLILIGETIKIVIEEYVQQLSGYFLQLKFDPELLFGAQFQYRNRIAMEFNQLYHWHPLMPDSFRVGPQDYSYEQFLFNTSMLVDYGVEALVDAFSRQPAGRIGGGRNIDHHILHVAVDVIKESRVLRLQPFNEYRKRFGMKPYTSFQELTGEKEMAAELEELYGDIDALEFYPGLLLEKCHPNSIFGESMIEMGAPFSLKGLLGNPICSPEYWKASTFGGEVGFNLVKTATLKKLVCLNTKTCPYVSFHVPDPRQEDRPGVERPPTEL
Description: as §1

[3] = system: COX-I; conditions: less than 500 μM; cited from earlier work
[4] = target: T3, COX-II (Ovis aries, UniProt P79208); conditions: less than 500 μM; cited from earlier work
T3 sequence (P79208 17-603): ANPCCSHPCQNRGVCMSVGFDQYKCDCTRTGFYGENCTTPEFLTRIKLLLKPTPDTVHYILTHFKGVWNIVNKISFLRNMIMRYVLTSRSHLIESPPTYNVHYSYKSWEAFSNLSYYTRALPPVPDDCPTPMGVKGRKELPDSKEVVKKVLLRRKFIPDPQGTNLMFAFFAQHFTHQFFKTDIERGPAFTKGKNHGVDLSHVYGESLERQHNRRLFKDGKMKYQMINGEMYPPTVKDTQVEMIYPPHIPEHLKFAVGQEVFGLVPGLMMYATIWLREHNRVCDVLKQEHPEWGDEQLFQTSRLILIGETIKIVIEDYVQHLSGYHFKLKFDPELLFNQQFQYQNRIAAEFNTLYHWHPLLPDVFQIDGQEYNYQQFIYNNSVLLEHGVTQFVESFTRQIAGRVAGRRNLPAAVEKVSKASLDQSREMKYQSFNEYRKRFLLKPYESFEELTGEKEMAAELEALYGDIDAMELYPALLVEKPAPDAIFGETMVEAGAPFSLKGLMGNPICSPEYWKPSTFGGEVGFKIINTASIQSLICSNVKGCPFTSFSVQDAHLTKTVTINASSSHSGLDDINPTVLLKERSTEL

[5] = target: T4, cyclooxygenase; type: biochemical
T4 construct: "prepared from ram seminal vesicles"
Description: as §1

[6] = 100 μg mL^−1, compared to solvent control

COX-II inhibition (result in words) ([1]; 100 μg mL^−1): didn't exhibit any inhibition | COX-I inhibition (result in words) ([2]; 100 μg mL^−1): didn't exhibit any inhibition
SMILES: COc1cc(OC)c(C(=O)O)cc1OC [2,4,5-trimethoxybenzoicacid, reference compound]

SMILES: COc1cc(OC)c(OC)cc1C=O [Compound 1, 2,4,5-trimethoxybenzaldehyde]
inhibition at 25 µg/mL ([1]; 25 μg mL^−1): > 30% | inhibition at 100 µg/mL ([1]; 100 μg mL^−1): 52.7% | selectivity towards COX-II enzyme inhibition (in words) ([1]; 100 μg mL^−1, COX-II versus COX-I): selectivity towards COX-II enzyme inhibition; also recorded: selective inhibition of COX-II enzyme | COX-II/COX-I ratio [1, 6]: 17.68 | inhibition at 100 µg/mL [2]: 3.32%

inhibition at 100 µg/mL ([1]; 100 μg mL^−1): 68.4% | COX-II/COX-I ratio [1, 6]: 1.51 | inhibition at 100 µg/mL ([2]; 100 μg mL^−1): 45.3%
SMILES: CCCCCCCC/C=C\CCCCCCCC(=O)O [Compound 2, oleic acid]
COX-I inhibition (in words) [3]: not COX-I or COX-II inhibitory | COX-II inhibition (in words) [4]: not COX-I or COX-II inhibitory

SMILES: C/C=C/c1cc(OC)c(OC)cc1OC [Compound 3, trans-asarone]
COX-II inhibitory activity ([1]; 100 μg mL^−1): 64.39% | COX-II/COX-I ratio [1, 6]: 1.4 | COX-I inhibitory activity ([2]; 100 μg mL^−1): 46.15%

inhibition at 100 µg/mL ([1]; 100 μg mL^−1): 0% | inhibition at 100 µg/mL ([2]; 100 μg mL^−1): 3.15%
SMILES: CC(C)=CCC/C(C)=C/CO [Compound 4, geraniol]
COX-II inhibition (result in words) ([1]; 100 μg mL^−1): not active; also recorded: did not inhibit | COX-I inhibition (result in words) ([2]; 100 μg mL^−1): not active; also recorded: did not inhibit

IC50 values [5]: 2.52 µg/mL (≈ 12.2 µM)
SMILES: CC(C)Cc1ccc(C(C)C(=O)O)cc1 (stereo not drawn) [Ibuprofen]

SMILES: COc1ccc2cc([C@H](C)C(=O)O)ccc2c1 [Naproxen, reference compound]
IC50 values ([5]; concentration at which the reference drug was assayed, isozyme not stated): 2.06 µg/mL (≈ 8.95 µM) | COX-II/COX-I ratio [1]: 0.92

SMILES: COc1cc(OC)c(OC)cc1C=O [Synthetic 2,4,5-trimethoxybenzaldehyde, 2,4,5-trimethoxybenzaldehyde, reference compound]
COX-II inhibition of commercial synthetic sample versus natural product (in words) ([1]; 25-100 μg mL^−1): slightly lower COX-II activity than natural form

SMILES: CS(=O)(=O)c1ccc(C2=C(c3ccccc3)C(=O)OC2)cc1 [Vioxx, reference compound]
COX-II/COX-I ratio [1]: 75
